Data taken from patent publication US6440954B1, “Inhibition of vascular smooth muscle cell proliferation” (President and Fellows of Harvard College, priority 1997, dated 2002).

Legend:
RASMCs [1] = experiment: [3H]thymidine incorporation in RASMCs; format: cell-based, rat
Method: (§1) RASMCs were harvested from the thoracic aortas of adult male Sprague-Dawley rats (200-250 g) by enzymatic dissociation as described (Tsai et al., Proc. Natl. Acad. Sci. USA 91, 6369-6373 (1994)). The cells were grown in DMEM supplemented with 10% FCS, penicillin (100 U/ml), streptomycin (100 μg/ml), glutamine ([…]), and 25 mM Hepes (pH 7.4) in a humidified incubator (37° C., 5% CO2). HASMCs (Clonetics, San Diego) were grown in M199 medium (GIBCO BRL, Grand Island, N.Y.) supplemented with 20% FCS, penicillin (100 U/ml), streptomycin (100 μg/ml), and 25 mM Hepes (pH 7.4). Cells from passages 5-9 were used. RASMCs and HASMCs were cultured in 24-well plates containing an appropriate growth medium (DMEM plus 10% FCS for RASMCs, and M199 plus 20% FCS for HASMCs). After the cells had grown to 70-80% confluence, they were rendered quiescent by incubation for 72 h in DMEM (for RASMCs) or M199 (for HASMCs) containing 0.4% charcoal/dextran-treated FCS (FIGS. 2a and 2d) or 0.4% calf serum (CS) (FIGS. 2b and 2c). Phenol red-free DMEM was used in the experiments with estradiol (FIG. 2a). […] After incubation, the cells were washed with Dulbecco's PBS, fixed in cold 10% TCA for at least 2 h, and then washed with 95% ethanol. Incorporated [^3H]thymidine was extracted in 0.2 N NaOH and measured in a liquid scintillation counter.

HASMCs = experiment: [3H]thymidine incorporation in HASMCs; format: cell-based, human; conditions: quiescent HASMCs, 24 h incubation, FIG. 2d
Method: as §1

RASMCs [2] = experiment: Cell counting (RASMC proliferation); format: cell-based, rat; conditions: FIG. 3b
Method: RASMCs (2×10^4) were seeded onto 6-well plates and grown in DMEM supplemented with 10% FCS. […] Medium and progesterone were changed daily. Cells were counted in a Coulter apparatus at various times after their removal from the plates with trypsin-EDTA.

[3] = tested on: cyclin A, E, B and D1 mRNAs in RASMCs; experiment: Northern analysis of cyclin mRNAs in RASMCs; format: cell-based, rat; conditions: 24 h after treatment, FIG. 4
Method: Total RNA from RASMCs was prepared from cultured RASMCs by guanidinium isothiocyanate extraction and centrifugation through cesium chloride. […] RNA samples (20 μg/lane) were electrophoresed on 1.3% formaldehyde-agarose gel, and then transferred onto nitrocellulose filters. The filters were hybridized to ^32P-labeled human cyclin probes as described (Lee et al., J. Biol. Chem. 266, 16188-16192 (1991); Lee et al., J. Biol Chem. 269, 12032-12039 (1994)). To normalize RNA content of each lane, the filters were washed at 80° C. in 50% formamide solution to remove the cyclin probes, and then hybridized with oligonucleotide probes for 28S RNA. Hybridized filters were washed in 30 mM NaCl, 3 mM sodium citrate, and 0.1% sodium dodecyl sulfate at 55° C. Radioactive signals were visualized on Kodak XAR film or PhosphorImager screens (Molecular Dynamics, Inc. Sunnyvale, Calif.).

Structure (SMILES): CC(=O)[C@H]1CC[C@H]2[C@@H]3CCC4=CC(=O)CC[C@]4(C)[C@H]3CC[C@]12C [progesterone]
- effect of serum (FCS) concentration on progesterone-induced inhibition of [3H]thymidine incorporation (RASMCs [1]; RASMCs, progesterone 500 nM, FIG. 2c): counteracted by serum in a dose-dependent manner
- effect on [3H]thymidine incorporation in RASMCs (RASMCs [1]; quiescent RASMCs, 24 h incubation, FIG. 2a/2b): inhibited
- effect on [3H]thymidine incorporation in HASMCs (HASMCs): dose-dependent inhibition
- reduction in RASMC cell growth, dose dependence (RASMCs [2]): dose-dependent
- cyclin A mRNA level [3]: downregulated
- cyclin B mRNA level [3]: did not change
- cyclin D1 mRNA level [3]: did not change
- cyclin E mRNA level [3]: downregulated
